Experimental data from ChEMBL document CHEMBL3507680, “University of Dundee, Gates Library screen for HepG2 cell viability”.

Assay: Human HepG2 cell viability assay in 384 well format
Type: toxicity, cell-based
Set-up: dose 125 nL, time 70.5 hour; concentration not given beside the values
Settings: HepG2 cells, read-out: Inhibition

Point of comparison: `COCC(=O)N1CCN(Cc2csc(-c3ncccn3)n2)CC1`, cytotoxicity at 70.5 h -2.92%. Against it:
- CC(C)(C)c1nc(CC(=O)N2CCCC(n3cncn3)C2)cs1 (stereo not given) — higher, -1.77%
- C=C(C)COc1ccccc1NC(=O)N1CCOCC(CO)C1 (stereo not given) — higher, 23.5%
- c1ccc2sc(N3CCN(c4ncnc5c4CCC5)CC3)nc2c1 — higher, 13.8%
- O=C(c1ccc[nH]1)N1CCN(Cc2ccncc2)c2ncccc2C1 — lower, -11.6%
- COCCOC[C@]1(CNC(=O)c2ccc(OC)cc2)C[C@@H](O)[C@@H](O)C1 — lower, -4.22%
- CCCn1cc(-c2ccnc(NC3CCc4ccccc4C3)n2)c(C)n1 (stereo not given) — higher, 19.3%
- O=S(=O)(NCCNc1cc(-n2cccn2)ncn1)c1cccs1 — higher, 12.1%
- Cn1ncc2c1NC(=O)CSC2c1ccccc1Cl (stereo not given) — higher, 14.7%
- COCCN1CCC(C)(c2cc(O)[nH]n2)CC1 — lower, -3.06%
- COc1ccc(C(=O)N2Cc3cc(C)ccc3OCC2CN(C)C)cc1 (stereo not given) — higher, 3.28%
- COCCc1noc(CN(C)C2CCCN(c3ccc(C)nn3)C2)n1 (stereo not given) — higher, 24.4%
- CCc1nnc(N2CCN(c3ccccc3)C(=O)C2)o1 — lower, -7.77%
- CCc1cc(CN(C)C(=O)c2nnc(CN(C)C)o2)on1 — lower, -4.97%
- COc1cccc(OC)c1-c1ccnc2cc(CC(=O)N(C)C)nn12 — lower, -11.5%
- O=S(=O)(N1CCC(n2cccc2)CC1)N1CCCC1c1ccco1 (stereo not given) — lower, -10.3%
- O=C(CCNC(=O)C1=Cc2ccccc2OC1)Nc1cccnc1 — lower, -6.01%
- O=C(c1ccnc(C2CCNCC2)c1)N1CCCC(CO)C1 (stereo not given) — higher, -2.32%
- CC(C)(C)c1ncc2c(n1)CN(C(=O)C(C)(C)n1cccc1)C2 — lower, -6.39%
- Cc1n[nH]c(C)c1CCN(C)C(=O)c1ccc(CN2CCCCC2)cc1 — higher, 34.3%
- COc1nn(C)c2c1CCCN(C(=O)c1cccc(C)n1)C2 — higher, -2.8%
- CC(=O)Nc1ccc(CN2CCc3[nH]cnc3C2c2nccn2C)cc1 (stereo not given) — lower, -3.14%
- OCCN1CCc2[nH]nc(C(c3ccccc3)c3ccccc3)c2C1 — lower, -7.95%
- CCOc1c(Cl)cccc1NCc1cc(C)on1 — higher, 6.44%
- CSc1ncc(C(=O)N2C[C@H]3CC[C@@H]2CN(S(=O)(=O)N(C)C)C3)cn1 — higher, -1.22%
- CC(=O)N1CCc2nc(N(C)C)nc(NCCc3ccccc3)c2CC1 — lower, -9.06%
- CC1(C)CNC(=O)c2nc(C3CCCN(C(=O)C4CC4)C3)[nH]c2C1 (stereo not given) — lower, -7.49%
- COCCN1CCC12CCN(C(=O)Cc1cccs1)C2 (stereo not given) — lower, -7.8%
- O=C(Nc1ccccc1)c1n[nH]c(-n2cnnc2)n1 — higher, -2.23%
- Cc1csc([C@H]2C[C@@H]3CCN(C(=O)c4ccnnc4)C[C@H]3O2)n1 — higher, -1.58%
- Cc1cc(C)c2nc(CN3CC[C@@H](O)C3)cc(O)c2c1 — lower, -4.35%
- Cc1cc(C)nc(N(C)CCN(C)C2CCCC2)n1 — lower, -6.11%
- CCOC(=O)c1ccc(NC(=O)c2c(O)nc3c(c2O)CCCC3)cc1 — lower, -10.8%
- O=C(NC[C@H]1CCCO1)c1ccc(S(=O)(=O)N2C[C@@H]3C[C@H]2CN3)cc1 — higher, -1.62%
- c1cnn(CCCO[C@@H]2CN(C3CCOCC3)[C@@H]3CCCO[C@@H]32)c1 — higher, 4.39%
- COCCN1CC[C@@H]2O[C@H](COCc3csc(C)n3)CC[C@@H]21 — lower, -15.2%
- COCc1ncn2c1CN(C(=O)c1ccc[nH]1)CC2 — lower, -4.65%
- CN(C)[C@@H]1COC[C@@H]2CN(Cc3ccc4c(c3)OCO4)C[C@@H]21 — lower, -3.34%
- O=C(Cc1ccon1)N1CCN(c2ccncc2Cl)CC1 — higher, 5.48%
- C[S+]([O-])c1nncn1CC(=O)c1cccc(Br)c1 (stereo not given) — lower, -3.69%
- Cc1cccc(CNC[C@H]2Cn3cc(-c4ccccc4)nc3CO2)n1 — lower, -7.12%
- O=C(Nc1ccnc(OC2CCOC2)c1)C1CCC1 (stereo not given) — higher, -2.33%
- Cc1ccc(NC(=O)C2CSCN2C(=O)c2cnn(C)c2)c(C)c1 (stereo not given) — lower, -4.99%
- CC(C)COC(C)C(=O)N1CCN(S(C)(=O)=O)CC1 (stereo not given) — higher, -0.767%
- CCCS(=O)(=O)NCC1OCCc2cn(CC3CCOCC3)nc21 (stereo not given) — higher, 30.2%
- CC(C)N1CCC(CC(=O)NC(C(=O)O)c2cc(F)ccc2F)CC1 (stereo not given) — lower, -16.6%
- Cn1cc(C(=O)N[C@@H]2CN(Cc3ccoc3)[C@@H]3CCCO[C@@H]32)cn1 — lower, -5.02%
- N#Cc1ccccc1Cn1cncn1 — higher, 9.79%
- Cc1ccc(N2CCN(Cc3ccccc3)C3(CCNCC3)C2=O)cn1 — lower, -4.83%
- Clc1cncc(NCc2cccc(COC3CCOCC3)c2)n1 — lower, -6.08%
- c1ccc(OCc2nnc3n2CCN(CC2CC2)C3)nc1 — lower, -13.3%
- CC(C)(C)c1ccc(C(=O)NCCCNC(=O)c2cnccn2)cc1 — lower, -3.26%
- COc1ccc(OCCNc2cccc(C(=O)N3CCOCC3)c2)cc1 — lower, -3.69%
- CCc1c(C)nc(-n2nc(-c3cccs3)cc2N)[nH]c1=O — lower, -5.27%
- CCc1c(C)sc2c1c(N)nc(=O)n2CCN1CCCCC1 — higher, 5.23%
